Assay results taken from ChEMBL document CHEMBL4507281, “Data for DCP probe BI-4394” (2021).

What was measured:
[1] = biological target: D(1B) dopamine receptor (Homo sapiens, UniProt P21918); experiment: GPCRScan assay: inhibition of D5; set-up: radioligand conc. used [nm] 2.0 – 3.0, parental cells HEKT
[2] = biological target: Activin receptor type-2B (Homo sapiens) (UniProt Q13705); conditions: Compound concentration 100.0 nM
[3] = biological target: Calcium/calmodulin-dependent protein kinase kinase 1 (Homo sapiens) (UniProt Q8N5S9); conditions: Compound concentration 100.0 nM
[4] = biological target: Mitogen-activated protein kinase 4 (Homo sapiens) (UniProt P31152); conditions: Compound concentration 100.0 nM
[5] = biological target: Focal adhesion kinase 1 (Homo sapiens) (UniProt Q05397); conditions: Compound concentration 100.0 nM
[6] = biological target: Cyclin-G-associated kinase (Homo sapiens) (UniProt O14976); conditions: Compound concentration 100.0 nM
[7] = biological target: Rhodopsin kinase GRK1 (Homo sapiens) (UniProt Q15835); conditions: Compound concentration 100.0 nM
[8] = biological target: Beta-adrenergic receptor kinase 1 (Homo sapiens) (UniProt P25098); conditions: Compound concentration 100.0 nM
[9] = biological target: Glycogen synthase kinase-3 beta (Homo sapiens) (UniProt P49841); conditions: Compound concentration 100.0 nM
[10] = biological target: Inhibitor of nuclear factor kappa-B kinase subunit epsilon (Homo sapiens) (UniProt Q14164); conditions: Compound concentration 100.0 nM
[11] = biological target: Insulin receptor (Homo sapiens) (UniProt P06213); conditions: Compound concentration 100.0 nM
[12] = tested on: Mast/stem cell growth factor receptor Kit (Homo sapiens), P10721 [V559D,V654A]; conditions: Compound concentration 100.0 nM
[13] = biological target: Mitogen-activated protein kinase kinase kinase 2 (Homo sapiens) (UniProt Q9Y2U5); conditions: Compound concentration 100.0 nM
[14] = biological target: MAP/microtubule affinity-regulating kinase 3 (Homo sapiens) (UniProt P27448); conditions: Compound concentration 100.0 nM
[15] = biological target: Myosin-IIIb (Homo sapiens) (UniProt Q8WXR4); conditions: Compound concentration 100.0 nM
[16] = biological target: Serine/threonine-protein kinase Nek11 (Homo sapiens) (UniProt Q8NG66); conditions: Compound concentration 100.0 nM
[17] = biological target: Platelet-derived growth factor receptor alpha (Homo sapiens) (UniProt P16234); conditions: Compound concentration 100.0 nM
[18] = biological target: Cyclin-dependent kinase 15 (Homo sapiens) (UniProt Q96Q40); conditions: Compound concentration 100.0 nM
[19] = tested on: Phosphatidylinositol 4,5-bisphosphate 3-kinase catalytic subunit alpha isoform (Homo sapiens), P42336 [C420R]; conditions: Compound concentration 100.0 nM
[20] = tested on: Phosphatidylinositol 4,5-bisphosphate 3-kinase catalytic subunit alpha isoform (Homo sapiens), P42336 [Q546K]; conditions: Compound concentration 100.0 nM
[21] = biological target: Serine/threonine-protein kinase pim-1 (Homo sapiens) (UniProt P11309); conditions: Compound concentration 100.0 nM
[22] = biological target: Serine/threonine-protein kinase N2 (Homo sapiens) (UniProt Q16513); conditions: Compound concentration 100.0 nM
[23] = biological target: Serine/threonine-protein kinase PLK1 (Homo sapiens) (UniProt P53350); conditions: Compound concentration 100.0 nM
[24] = biological target: T1, Protein kinase C epsilon type (Homo sapiens) (UniProt Q02156); conditions: Compound concentration 100.0 nM
T1 sequence (whole entry): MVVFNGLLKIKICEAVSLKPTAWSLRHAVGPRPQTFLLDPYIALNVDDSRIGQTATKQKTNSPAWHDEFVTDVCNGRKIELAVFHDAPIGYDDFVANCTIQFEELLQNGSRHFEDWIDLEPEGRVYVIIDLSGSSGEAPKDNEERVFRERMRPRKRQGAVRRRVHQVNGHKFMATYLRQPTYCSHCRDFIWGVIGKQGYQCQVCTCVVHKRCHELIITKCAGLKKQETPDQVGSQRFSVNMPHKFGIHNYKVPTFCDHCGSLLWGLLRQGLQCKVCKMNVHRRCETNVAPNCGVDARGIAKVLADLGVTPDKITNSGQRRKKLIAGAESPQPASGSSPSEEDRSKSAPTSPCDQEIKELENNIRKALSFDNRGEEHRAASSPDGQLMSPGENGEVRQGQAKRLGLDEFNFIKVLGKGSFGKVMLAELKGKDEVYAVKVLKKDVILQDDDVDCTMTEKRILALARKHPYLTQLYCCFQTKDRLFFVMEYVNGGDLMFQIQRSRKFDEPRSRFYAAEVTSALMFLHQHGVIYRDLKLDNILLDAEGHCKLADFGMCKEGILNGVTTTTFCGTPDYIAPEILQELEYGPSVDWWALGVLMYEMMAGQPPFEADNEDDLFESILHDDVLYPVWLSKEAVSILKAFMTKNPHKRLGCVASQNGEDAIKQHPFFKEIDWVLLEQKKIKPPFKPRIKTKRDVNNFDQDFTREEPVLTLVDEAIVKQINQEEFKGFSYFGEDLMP

[25] = biological target: Serine/threonine-protein kinase RIO1 (Homo sapiens) (UniProt Q9BRS2); conditions: Compound concentration 100.0 nM
[26] = biological target: Serine/threonine-protein kinase Sgk3 (Homo sapiens) (UniProt Q96BR1); conditions: Compound concentration 100.0 nM
[27] = biological target: NUAK family SNF1-like kinase 2 (Homo sapiens) (UniProt Q9H093); conditions: Compound concentration 100.0 nM
[28] = biological target: Tyrosine-protein kinase SYK (Homo sapiens) (UniProt P43405); conditions: Compound concentration 100.0 nM
[29] = biological target: Serine/threonine-protein kinase TAO2 (Homo sapiens) (UniProt Q9UL54); conditions: Compound concentration 100.0 nM
[30] = biological target: Transient receptor potential cation channel subfamily M member 6 (Homo sapiens) (UniProt Q9BX84); conditions: Compound concentration 100.0 nM
[31] = biological target: Serine/threonine-protein kinase WNK1 (Homo sapiens) (UniProt Q9H4A3); conditions: Compound concentration 100.0 nM
[32] = biological target: 5-hydroxytryptamine receptor 1D (Homo sapiens) (UniProt P28221); conditions: Compound concentration 10.0 uM
[33] = biological target: Histamine H4 receptor (Homo sapiens) (UniProt Q9H3N8); conditions: Compound concentration 10.0 uM
[34] = biological target: GABA-A receptor; anion channel (Rattus norvegicus) (UniProt O09028+P15431+P18506+P18508+P19969+P20236+P23574+P23576+P28471+P28473+P30191+P62813+P63079+P63138+Q91ZM7+Q9ES14); conditions: Compound concentration 10.0 uM

Chain of Transient receptor potential cation channel subfamily M member 6 (Homo sapiens) (Q9BX84 whole entry): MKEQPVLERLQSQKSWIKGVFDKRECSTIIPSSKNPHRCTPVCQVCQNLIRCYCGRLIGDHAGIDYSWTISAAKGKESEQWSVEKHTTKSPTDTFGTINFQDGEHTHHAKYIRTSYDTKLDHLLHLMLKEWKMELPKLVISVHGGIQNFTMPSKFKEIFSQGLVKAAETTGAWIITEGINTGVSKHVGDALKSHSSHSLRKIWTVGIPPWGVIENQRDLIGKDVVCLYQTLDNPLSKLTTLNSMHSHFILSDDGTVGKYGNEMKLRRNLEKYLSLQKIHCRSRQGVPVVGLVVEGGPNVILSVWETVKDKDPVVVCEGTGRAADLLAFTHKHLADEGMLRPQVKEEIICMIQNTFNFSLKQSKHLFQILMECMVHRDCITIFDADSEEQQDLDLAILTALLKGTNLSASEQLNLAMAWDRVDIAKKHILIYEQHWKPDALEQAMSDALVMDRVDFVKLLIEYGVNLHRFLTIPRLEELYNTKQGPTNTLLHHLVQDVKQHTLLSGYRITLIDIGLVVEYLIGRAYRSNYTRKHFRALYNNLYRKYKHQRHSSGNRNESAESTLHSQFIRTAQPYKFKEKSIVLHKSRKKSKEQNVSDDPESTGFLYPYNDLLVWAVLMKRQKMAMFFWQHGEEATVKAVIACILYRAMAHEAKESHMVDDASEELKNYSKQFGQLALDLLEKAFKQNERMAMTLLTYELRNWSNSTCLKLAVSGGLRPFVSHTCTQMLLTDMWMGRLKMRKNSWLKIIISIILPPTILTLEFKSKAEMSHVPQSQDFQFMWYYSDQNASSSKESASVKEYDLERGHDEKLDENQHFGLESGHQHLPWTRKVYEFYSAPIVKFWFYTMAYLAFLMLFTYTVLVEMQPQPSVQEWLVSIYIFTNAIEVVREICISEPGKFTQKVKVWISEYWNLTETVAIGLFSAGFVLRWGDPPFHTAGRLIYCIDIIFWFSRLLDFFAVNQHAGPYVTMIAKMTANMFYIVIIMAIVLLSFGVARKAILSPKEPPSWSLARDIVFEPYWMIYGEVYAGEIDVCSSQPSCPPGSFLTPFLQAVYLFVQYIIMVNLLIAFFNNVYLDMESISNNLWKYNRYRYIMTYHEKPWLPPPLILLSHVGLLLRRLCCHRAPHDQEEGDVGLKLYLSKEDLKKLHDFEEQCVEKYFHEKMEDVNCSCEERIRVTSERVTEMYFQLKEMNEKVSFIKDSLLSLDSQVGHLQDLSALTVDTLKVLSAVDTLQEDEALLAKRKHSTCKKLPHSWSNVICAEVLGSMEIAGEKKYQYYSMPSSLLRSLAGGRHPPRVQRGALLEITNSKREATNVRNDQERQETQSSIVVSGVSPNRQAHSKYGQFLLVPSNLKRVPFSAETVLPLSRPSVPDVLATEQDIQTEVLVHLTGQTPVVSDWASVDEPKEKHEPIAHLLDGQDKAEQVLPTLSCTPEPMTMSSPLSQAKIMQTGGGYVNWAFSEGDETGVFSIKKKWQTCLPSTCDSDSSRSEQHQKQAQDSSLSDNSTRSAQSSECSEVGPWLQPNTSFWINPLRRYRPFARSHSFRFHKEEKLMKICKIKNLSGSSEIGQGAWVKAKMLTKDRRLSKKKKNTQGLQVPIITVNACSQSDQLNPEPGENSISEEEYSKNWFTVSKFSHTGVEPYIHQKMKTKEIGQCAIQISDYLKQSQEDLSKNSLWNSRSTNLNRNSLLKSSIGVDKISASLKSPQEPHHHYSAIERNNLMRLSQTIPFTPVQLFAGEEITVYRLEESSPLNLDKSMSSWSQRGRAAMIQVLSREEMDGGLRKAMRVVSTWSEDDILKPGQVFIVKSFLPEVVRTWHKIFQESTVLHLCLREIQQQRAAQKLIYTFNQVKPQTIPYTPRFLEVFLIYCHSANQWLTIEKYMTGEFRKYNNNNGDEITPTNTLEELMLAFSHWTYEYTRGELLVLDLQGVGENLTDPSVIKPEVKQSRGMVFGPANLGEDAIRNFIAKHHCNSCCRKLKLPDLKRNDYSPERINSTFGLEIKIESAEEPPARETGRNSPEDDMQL
Chain of Cyclin-G-associated kinase (Homo sapiens) (O14976 whole entry): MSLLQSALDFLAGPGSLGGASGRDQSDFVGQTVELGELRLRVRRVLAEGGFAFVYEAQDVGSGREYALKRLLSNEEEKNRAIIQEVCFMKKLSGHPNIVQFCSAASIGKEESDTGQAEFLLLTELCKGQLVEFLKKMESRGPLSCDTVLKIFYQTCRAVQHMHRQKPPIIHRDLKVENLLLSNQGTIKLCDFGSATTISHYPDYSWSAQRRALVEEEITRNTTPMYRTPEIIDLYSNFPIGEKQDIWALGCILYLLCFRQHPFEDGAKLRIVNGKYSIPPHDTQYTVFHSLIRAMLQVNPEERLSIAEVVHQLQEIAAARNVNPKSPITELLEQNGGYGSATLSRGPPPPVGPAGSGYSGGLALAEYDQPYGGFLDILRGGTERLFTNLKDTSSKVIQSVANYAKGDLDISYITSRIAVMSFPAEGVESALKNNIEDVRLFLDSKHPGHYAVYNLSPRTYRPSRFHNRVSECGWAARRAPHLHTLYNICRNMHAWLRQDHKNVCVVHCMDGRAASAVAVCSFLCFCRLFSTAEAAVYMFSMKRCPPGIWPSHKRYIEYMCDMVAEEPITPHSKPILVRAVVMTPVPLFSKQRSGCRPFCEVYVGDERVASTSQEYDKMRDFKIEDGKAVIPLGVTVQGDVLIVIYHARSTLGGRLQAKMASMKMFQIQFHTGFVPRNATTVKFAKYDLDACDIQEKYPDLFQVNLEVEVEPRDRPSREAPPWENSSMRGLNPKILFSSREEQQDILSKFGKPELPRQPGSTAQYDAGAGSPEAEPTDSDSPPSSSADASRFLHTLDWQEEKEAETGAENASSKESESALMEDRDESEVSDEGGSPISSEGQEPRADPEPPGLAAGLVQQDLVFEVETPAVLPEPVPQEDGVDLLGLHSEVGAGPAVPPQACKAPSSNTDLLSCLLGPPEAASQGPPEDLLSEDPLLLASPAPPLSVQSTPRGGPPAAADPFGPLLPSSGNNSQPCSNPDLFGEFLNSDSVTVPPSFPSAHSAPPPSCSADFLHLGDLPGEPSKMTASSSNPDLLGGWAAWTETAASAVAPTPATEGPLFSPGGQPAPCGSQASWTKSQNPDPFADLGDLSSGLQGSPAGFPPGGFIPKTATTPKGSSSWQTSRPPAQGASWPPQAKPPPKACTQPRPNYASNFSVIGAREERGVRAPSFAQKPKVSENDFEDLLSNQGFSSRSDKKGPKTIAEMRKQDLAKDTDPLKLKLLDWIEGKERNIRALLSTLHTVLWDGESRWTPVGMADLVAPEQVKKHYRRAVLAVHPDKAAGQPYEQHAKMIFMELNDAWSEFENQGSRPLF
Chain of Glycogen synthase kinase-3 beta (Homo sapiens) (P49841 whole entry, looked up): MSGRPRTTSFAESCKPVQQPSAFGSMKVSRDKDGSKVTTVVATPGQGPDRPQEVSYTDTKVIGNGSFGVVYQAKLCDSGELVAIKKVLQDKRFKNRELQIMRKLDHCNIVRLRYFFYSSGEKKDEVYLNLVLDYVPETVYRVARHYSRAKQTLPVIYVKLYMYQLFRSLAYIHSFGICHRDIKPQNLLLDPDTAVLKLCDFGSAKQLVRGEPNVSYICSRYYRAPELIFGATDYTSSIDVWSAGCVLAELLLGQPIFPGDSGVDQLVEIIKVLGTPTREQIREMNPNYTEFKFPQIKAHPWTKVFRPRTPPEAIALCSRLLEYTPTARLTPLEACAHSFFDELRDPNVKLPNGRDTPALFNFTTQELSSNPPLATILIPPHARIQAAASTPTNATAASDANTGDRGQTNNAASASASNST
Chain of Serine/threonine-protein kinase TAO2 (Homo sapiens) (Q9UL54 whole entry): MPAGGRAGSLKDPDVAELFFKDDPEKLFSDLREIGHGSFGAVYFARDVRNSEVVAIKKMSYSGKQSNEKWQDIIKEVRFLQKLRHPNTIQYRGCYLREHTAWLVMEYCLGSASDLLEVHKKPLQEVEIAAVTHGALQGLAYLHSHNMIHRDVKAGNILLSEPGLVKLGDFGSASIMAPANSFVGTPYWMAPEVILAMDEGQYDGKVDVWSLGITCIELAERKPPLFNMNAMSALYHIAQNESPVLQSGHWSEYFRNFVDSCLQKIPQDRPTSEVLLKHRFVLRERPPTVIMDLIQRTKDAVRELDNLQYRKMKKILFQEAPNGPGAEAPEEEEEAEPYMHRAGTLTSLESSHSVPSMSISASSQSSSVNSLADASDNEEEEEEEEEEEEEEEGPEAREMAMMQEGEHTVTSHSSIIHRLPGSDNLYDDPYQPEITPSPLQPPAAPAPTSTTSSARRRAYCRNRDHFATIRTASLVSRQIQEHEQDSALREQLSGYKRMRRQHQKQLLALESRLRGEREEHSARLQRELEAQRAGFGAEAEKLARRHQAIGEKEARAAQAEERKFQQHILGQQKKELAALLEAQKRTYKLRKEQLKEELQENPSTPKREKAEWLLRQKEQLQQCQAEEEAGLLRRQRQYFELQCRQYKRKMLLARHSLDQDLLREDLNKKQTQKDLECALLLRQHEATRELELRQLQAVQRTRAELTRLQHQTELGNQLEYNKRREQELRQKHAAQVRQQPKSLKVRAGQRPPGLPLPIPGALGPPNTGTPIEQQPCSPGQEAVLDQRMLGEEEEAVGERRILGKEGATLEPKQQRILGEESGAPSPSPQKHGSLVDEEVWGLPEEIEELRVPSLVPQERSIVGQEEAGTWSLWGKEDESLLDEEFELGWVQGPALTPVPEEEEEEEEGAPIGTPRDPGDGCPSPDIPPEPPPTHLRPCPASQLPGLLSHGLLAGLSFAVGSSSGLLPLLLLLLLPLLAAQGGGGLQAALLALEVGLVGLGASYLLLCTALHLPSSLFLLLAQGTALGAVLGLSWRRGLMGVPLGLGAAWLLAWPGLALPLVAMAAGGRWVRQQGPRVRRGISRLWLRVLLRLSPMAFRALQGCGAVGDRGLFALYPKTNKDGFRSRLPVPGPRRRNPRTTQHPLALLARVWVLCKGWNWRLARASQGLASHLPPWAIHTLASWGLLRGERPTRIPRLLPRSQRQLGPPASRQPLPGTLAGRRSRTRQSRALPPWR

Structure (SMILES) | Ki [1] [µM] | residual activity [2] [%] | residual activity [3] [%] | residual activity [4] [%] | residual activity [5] [%] | residual activity [6] [%] | residual activity [7] [%] | residual activity [8] [%] | residual activity [9] [%] | residual activity [10] [%] | residual activity [11] [%] | residual activity [12] [%] | residual activity [13] [%] | residual activity [14] [%] | residual activity [15] [%] | residual activity [16] [%] | residual activity [17] [%] | residual activity [18] [%] | residual activity [19] [%] | residual activity [20] [%] | also measured
CCOC(=O)c1cc2cc(-c3cc(C(=O)NCc4ccc(C(=O)O)cc4)nn3C)ccc2[nH]1 [BI 4394] | 10 | 91 | 100 | 86 | 94 | 85 | 95 | 100 | 95 | 66 | 81 | 100 | 100 | 93 | 84 | 77 | 86 | 93 | 83 | 95 | residual activity [21]: 95%; residual activity [22]: 86%; residual activity [23]: 90%; residual activity [24]: 90%; residual activity [25]: 96%; residual activity [26]: 82%; residual activity [27]: 85%; residual activity [28]: 100%; residual activity [29]: 90%; residual activity [30]: 95%; residual activity [31]: 93%; inhibition [32]: 3.64%; inhibition [33]: -1.52%; inhibition [34]: 1.07%
Cn1nc(C(=O)NCc2ccc(C(=O)O)cc2)cc1-c1ccc2[nH]ccc2c1 [BI 4395] | 10 | 100 | 85 | 89 | 85 | 90 | 100 | 98 | 78 | 100 | 100 | 95 | 75 | 81 | 100 | 83 | 100 | 95 | 84 | 76 | residual activity [21]: 91%; residual activity [22]: 100%; residual activity [23]: 95%; residual activity [24]: 64%; residual activity [25]: 76%; residual activity [26]: 96%; residual activity [27]: 87%; residual activity [28]: 81%; residual activity [29]: 82%; residual activity [30]: 79%; residual activity [31]: 100%; inhibition [32]: 10.1%; inhibition [33]: -6.14%; inhibition [34]: 29.1%
